Laboratory results taken from US6977259B2, “Quinoline derivatives and their use as aurora 2 kinase inhibitors” (AstraZeneca AB, priority 2000, dated 2005).

Columns and labels:
MCF-7 cells [1] = assay: In vitro cell proliferation assay II (BrdU incorporation); type: cell-based; conditions: Homo sapiens, MCF7; MCF-7, 48 hours with compound, 2 hour BrdU labelling, ELISA; read-out: concentration giving 50% inhibition of BrdU incorporation
From the text: (§1) (b) In Vitro Cell Proliferation Assays
(§2) These and other assays can be used to determine the ability of a test compound to inhibit the growth of adherent mammalian cell lines, for example the human tumour cell line MCF7.
This assay determines the ability of at test compound to inhibit the incorporation of the thymidine analogue, 5′-bromo-2′-deoxy-uridine (BrdU) into cellular DNA. MCF-7 or other adherent cells were typically seeded at 0.8×10^4 cells per well in DMEM (Sigma Aldrich) without phenol red, plus 10% foetal calf serum, 1% L-glutamine and 1% penicillin/streptomycin (50 μl/well) in 96 well tissue culture treated 96 well plates (Costar) and allowed to adhere overnight. […] The optical density of the wells was then determined at 690 nm wavelength using a Titertek Multiscan plate reader. […]

aurora2 kinase = target: T1, aurora2 kinase (Homo sapiens, UniProt O14965); assay: In vitro aurora2 kinase inhibition test; type: biochemical
T1 construct: made in house; host or cells: Spodoptera frugiperda Sf21 insect cells (baculovirus, pFastBac HTc)
T1 sequence (O14965 1-403): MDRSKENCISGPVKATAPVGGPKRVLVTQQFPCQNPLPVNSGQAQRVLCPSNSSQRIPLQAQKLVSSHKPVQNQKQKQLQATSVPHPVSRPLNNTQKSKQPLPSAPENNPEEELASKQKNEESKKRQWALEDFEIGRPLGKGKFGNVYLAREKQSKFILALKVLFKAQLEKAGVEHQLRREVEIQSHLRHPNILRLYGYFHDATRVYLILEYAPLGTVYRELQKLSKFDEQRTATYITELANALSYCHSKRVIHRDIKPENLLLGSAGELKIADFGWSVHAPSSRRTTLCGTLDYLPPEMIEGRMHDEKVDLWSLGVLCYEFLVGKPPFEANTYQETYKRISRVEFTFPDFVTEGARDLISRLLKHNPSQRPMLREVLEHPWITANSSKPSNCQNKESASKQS

MCF-7 cells [2] = assay: In vitro cell proliferation assay 1 (CyQUANT cell density); type: cell-based; conditions: Homo sapiens, MCF7, 72 h; MCF-7, 3 days with compound, CyQUANT fluorescence; read-out: concentration giving 50% inhibition of cell proliferation
From the text: as §1, §2
MCF-7 (ATCC HTB-22) or other adherent cells were typically seeded at 1×10^3 cells per well (excluding the peripheral wells) in DMEM (Sigma Aldrich) without phenol red, plus 10% foetal calf serum, 1% L-glutamine and 1% penicillin/streptomycin in 96 well tissue culture treated clear plates (Costar). The following day (day 1), the media was removed from a no treatment control plate and the plate stored at −80° C. […] The fluorescence of the wells was then measured using a fluorescence microplate reader (gain 70, 2 reads per well, 1 cycle with excitation 485 nm and emission 530 nm using a CytoFluor plate reader (PerSeptive Biosystems Inc.)). […]

SMILES | IC50 (MCF-7 cells [1]) | IC50 (aurora2 kinase) | IC50 (MCF-7 cells [2])
COc1cc2c(Nc3cnc(NC(=O)c4ccccc4)nc3)ccnc2cc1OCCCN1CCOCC1 [Compound 2] | 460 nM | 59.2 nM | 456 nM
O=C(Nc1ncc(Nc2ccnc3cc(OCCCN4CCOCC4)ccc23)cn1)c1ccccc1 [Compound 4] | 190 nM | 78.5 nM | 185 nM
